Where two headings read alike, the source gives them in different places.
What was measured:
HDAC6 [1] = molecular target: T1, HDAC6 (Homo sapiens (Human), UniProt Q9UBN7); assay: biochemical
human HDAC1 [2] = molecular target: T2, human HDAC1 (Homo sapiens (Human), UniProt Q13547); assay: biochemical
human HDAC8 = human HDAC8 (Homo sapiens (Human), UniProt Q9BY41); assay: HDAC8 inhibition assay (modified FLUOR DE LYS, 384-well); format: biochemical
Method: The histone deacetylase activities of HDAC1, HDAC2, HDAC3, HDAC6, and HDAC8 were measured in modified FLUOR DE LYS assays in 384-well format. In this assay, HDAC enzymes are initially incubated with an F-acetyl (or -trifluoroacetyl)-L-lysine-containing substrate with a C-terminal amide having aminomethylcoumarin as the amine component. HDACs cleave the F-acetyl group, rendering the resulting product susceptible to AMC cleavage by trypsin. The released AMC is then detected by its fluorescence. […] All steps were performed at room temperature (23° C.). The assay was performed by pre-incubating serial dilutions of test compounds with the target HDAC prior to initiation with substrate. […] Final conditions used for each assay were: 1. […] The reactions were stopped and developed by addition of 30 ul of HDAC developer solution containing a saturating level of HDAC inhibitor as follows: 1. […] For data analysis, background subtracted product (fluorescence) vs. time data for each inhibitor concentration was fitted using a 4-parameter fit.

KARN cells (Jurkat 2C4) = assay: cells; settings: Homo sapiens
human HDAC2 = human HDAC2 (Homo sapiens (Human), UniProt Q92769); assay: HDAC2 inhibition assay (modified FLUOR DE LYS, 384-well); format: biochemical
[3] = molecular target: T3, human HDAC3/SMRT heterodimer (Homo sapiens (Human), UniProt O15379); assay: biochemical
HDAC6 [4] = molecular target: T1, HDAC6
human HDAC1 [5] = molecular target: T2, human HDAC1
[6] = molecular target: T3, human HDAC3/SMRT heterodimer
[7] = […] nM enzyme, 200 μM substrate BML-KI178, 3 h pre-incubation, read-out: HDAC8 IC50
[8] = read-out: Karn EC50 nM 0.1% NHS, 0.1% normal human serum, luciferase induction, 2 μM SAHA = 100%
[9] = read-out: Karn EC50 nM 5% NHS, 5% normal human serum, luciferase induction, 2 μM SAHA = 100%
[10] = […] nM enzyme, 40 μM substrate BML-KI104, 3 h pre-incubation, read-out: HDAC2 IC50
[11] = […] enzyme, 200 μM substrate BML-KI178, 3 h pre-incubation, read-out: HDAC8 IC50
[12] = […] enzyme, 40 μM substrate BML-KI104, 3 h pre-incubation, read-out: HDAC2 IC50

T2 sequence (Q13547 whole entry): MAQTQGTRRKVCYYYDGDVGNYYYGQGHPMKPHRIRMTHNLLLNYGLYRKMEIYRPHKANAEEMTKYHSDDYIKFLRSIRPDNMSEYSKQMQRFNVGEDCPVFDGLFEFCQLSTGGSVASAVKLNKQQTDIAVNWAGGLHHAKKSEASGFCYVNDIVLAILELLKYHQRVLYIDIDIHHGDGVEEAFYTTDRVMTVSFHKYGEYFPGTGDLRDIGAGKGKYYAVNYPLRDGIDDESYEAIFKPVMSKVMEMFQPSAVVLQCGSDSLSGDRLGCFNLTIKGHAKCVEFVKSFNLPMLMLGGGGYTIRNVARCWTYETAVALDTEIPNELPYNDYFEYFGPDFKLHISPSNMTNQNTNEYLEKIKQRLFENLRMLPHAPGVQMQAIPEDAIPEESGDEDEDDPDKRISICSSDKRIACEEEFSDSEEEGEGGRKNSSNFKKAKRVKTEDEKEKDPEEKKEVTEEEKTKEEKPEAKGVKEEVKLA
T1 sequence (Q9UBN7 whole entry): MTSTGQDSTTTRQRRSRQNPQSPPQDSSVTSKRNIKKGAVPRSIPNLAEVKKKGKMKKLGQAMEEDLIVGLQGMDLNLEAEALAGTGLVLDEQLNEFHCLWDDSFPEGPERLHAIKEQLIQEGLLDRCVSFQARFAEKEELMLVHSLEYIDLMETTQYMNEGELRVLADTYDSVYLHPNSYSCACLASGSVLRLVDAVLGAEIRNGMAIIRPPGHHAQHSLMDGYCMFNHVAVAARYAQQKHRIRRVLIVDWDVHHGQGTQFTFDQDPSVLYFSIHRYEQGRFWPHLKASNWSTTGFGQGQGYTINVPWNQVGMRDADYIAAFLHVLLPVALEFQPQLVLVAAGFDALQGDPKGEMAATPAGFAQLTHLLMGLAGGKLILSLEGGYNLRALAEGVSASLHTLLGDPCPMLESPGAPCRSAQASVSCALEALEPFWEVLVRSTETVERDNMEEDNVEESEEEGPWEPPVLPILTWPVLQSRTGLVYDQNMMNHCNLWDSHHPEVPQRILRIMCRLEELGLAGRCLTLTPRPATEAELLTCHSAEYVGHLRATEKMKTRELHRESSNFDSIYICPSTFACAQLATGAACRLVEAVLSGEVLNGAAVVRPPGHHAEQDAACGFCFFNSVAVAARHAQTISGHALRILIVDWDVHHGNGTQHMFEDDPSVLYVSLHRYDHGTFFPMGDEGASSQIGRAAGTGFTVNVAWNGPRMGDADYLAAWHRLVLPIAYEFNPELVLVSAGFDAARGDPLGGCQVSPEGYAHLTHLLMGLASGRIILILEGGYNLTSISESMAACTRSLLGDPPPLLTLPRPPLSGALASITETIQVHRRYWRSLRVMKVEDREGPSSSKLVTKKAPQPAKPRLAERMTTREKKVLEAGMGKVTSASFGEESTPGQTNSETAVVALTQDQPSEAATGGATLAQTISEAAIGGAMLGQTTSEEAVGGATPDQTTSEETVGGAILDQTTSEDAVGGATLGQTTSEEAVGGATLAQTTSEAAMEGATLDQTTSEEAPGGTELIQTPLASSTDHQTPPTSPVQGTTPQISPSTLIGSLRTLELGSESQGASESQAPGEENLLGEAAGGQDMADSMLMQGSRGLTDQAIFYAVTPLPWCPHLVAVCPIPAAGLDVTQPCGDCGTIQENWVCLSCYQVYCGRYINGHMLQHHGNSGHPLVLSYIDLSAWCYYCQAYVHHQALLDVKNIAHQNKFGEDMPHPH
Sequence of human HDAC2 (Q92769 whole entry): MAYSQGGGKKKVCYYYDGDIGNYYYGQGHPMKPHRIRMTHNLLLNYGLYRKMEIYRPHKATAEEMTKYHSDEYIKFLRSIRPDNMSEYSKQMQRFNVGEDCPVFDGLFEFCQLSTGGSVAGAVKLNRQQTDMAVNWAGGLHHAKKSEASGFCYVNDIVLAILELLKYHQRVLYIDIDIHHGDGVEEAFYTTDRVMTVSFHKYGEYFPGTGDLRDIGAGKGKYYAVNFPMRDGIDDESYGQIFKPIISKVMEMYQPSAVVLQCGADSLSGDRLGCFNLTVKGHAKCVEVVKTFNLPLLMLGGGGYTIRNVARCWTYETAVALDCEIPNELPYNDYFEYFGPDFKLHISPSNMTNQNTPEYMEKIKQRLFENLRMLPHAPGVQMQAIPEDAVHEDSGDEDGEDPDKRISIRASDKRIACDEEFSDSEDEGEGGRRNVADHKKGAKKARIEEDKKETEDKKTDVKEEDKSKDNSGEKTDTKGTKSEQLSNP
T3 sequence (O15379 whole entry): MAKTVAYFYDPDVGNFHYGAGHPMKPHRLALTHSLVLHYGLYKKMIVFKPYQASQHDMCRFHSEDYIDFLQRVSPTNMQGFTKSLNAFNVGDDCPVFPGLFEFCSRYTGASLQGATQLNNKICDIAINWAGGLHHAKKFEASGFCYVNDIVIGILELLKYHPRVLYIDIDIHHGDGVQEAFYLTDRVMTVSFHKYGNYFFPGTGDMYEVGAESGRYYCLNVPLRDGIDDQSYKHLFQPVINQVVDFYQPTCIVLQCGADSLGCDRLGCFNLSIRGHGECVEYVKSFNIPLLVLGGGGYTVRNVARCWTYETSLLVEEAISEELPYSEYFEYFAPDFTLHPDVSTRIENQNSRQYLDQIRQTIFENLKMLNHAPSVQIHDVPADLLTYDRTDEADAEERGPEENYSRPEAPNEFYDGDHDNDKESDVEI
T3 sequence (Q9Y618 1-899 partner): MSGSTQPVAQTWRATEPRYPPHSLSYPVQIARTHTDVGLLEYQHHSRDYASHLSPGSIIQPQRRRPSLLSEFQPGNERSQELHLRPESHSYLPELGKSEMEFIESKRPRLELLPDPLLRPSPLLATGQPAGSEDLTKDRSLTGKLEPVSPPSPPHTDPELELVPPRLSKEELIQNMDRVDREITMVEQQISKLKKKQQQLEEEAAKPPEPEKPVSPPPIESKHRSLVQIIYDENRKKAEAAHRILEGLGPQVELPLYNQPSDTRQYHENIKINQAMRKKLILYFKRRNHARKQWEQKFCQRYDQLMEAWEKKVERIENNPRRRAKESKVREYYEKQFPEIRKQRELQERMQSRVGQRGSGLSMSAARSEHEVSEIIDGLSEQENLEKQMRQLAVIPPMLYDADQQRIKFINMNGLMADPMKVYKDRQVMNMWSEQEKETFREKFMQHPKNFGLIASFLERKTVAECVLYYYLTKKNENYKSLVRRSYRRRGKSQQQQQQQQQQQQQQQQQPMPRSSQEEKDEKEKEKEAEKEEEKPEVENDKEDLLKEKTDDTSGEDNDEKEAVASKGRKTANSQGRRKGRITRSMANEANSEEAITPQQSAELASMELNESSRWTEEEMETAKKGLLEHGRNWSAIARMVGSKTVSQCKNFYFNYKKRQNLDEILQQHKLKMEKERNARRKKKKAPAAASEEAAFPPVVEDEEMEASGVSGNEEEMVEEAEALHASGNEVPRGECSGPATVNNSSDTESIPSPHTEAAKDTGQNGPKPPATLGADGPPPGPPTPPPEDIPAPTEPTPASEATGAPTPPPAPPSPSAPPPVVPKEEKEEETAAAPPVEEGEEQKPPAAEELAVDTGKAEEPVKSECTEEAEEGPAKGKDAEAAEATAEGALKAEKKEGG
Sequence of human HDAC8 (Q9BY41 whole entry): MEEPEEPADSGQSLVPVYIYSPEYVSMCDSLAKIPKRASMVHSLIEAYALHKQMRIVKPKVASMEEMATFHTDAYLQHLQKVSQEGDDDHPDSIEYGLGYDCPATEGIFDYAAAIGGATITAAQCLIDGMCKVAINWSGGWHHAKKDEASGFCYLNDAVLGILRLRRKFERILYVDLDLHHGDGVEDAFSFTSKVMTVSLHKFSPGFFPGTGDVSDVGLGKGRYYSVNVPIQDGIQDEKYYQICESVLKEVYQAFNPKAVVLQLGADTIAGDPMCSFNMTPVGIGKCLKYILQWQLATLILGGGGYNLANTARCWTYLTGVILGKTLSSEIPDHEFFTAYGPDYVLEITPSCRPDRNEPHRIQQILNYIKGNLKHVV

Compound | IC50 (HDAC6 [1]) | IC50 (human HDAC1 [2]) | IC50 (human HDAC8; [7]) | EC50 (KARN cells (Jurkat 2C4); [8]) | EC50 (KARN cells (Jurkat 2C4); [9]) | IC50 (human HDAC2; [10]) | IC50 [3] | IC50 (human HDAC8) | EC50 (KARN cells (Jurkat 2C4); read-out: Karn EC50 nM 0.1% NHS) | EC50 (KARN cells (Jurkat 2C4); read-out: Karn EC50 nM 5% NHS) | IC50 (human HDAC2) | IC50 (HDAC6 [4]) | IC50 (human HDAC8; [11]) | IC50 (human HDAC1 [5]) | IC50 [6] | IC50 (human HDAC2; [12])
Cc1ccc2cc(-c3c[nH]c([C@@H](N)CCCCCC(=O)c4ncco4)n3)ccc2n1 [Example 9, (S)-7-amino-7-(4-(2-methylquinolin-6-yl)-1H-imidazol-2-yl)-1-(oxazol-2-yl)heptan-1-one] | 2.3 µM | 0.0024 µM | 2000 nM | 160 nM | 160 nM | 12 nM | – | – | – | – | – | – | – | – | – | –
CCn1ccc2cc(-c3c[nH]c([C@@H](N)CCCCCC(=O)c4ncco4)n3)ccc2c1=O [Example 10, (S)-6-(2-(1-amino-7-(oxazol-2-yl)-7-oxoheptyl)-1H-imidazol-4-yl)-2-ethylisoquinolin-1(2H)-one] | ≥ 45 µM | 0.0026 µM | 2350 nM | 300 nM | 450 nM | 9.9 nM | 0.0028 µM | – | – | – | – | – | – | – | – | –
N[C@@H](CCCCCC(=O)c1ncco1)c1ncc(-c2ccc3ncccc3c2)[nH]1 [Example 16, (S)-7-amino-1-(oxazol-2-yl)-7-(5-(quinolin-6-yl)-1H-imidazol-2-yl)heptan-1-one] | 33 µM | 0.0027 µM | 1400 nM | 120 nM | 170 nM | 8.8 nM | 0.0026 µM | – | – | – | – | – | – | – | – | –
COc1cc2nc(C)ccc2cc1-c1cnc([C@@H](N)CCCCCC(=O)c2ncco2)o1 [Example 27, (S)-7-amino-7-(5-(7-methoxy-2-methylquinolin-6-yl)oxazol-2-yl)-1-(oxazol-2-yl)heptan-1-one] | 1.11 µM | 0.0019 µM | 1200 nM | 120 nM | 140 nM | 9.5 nM | – | – | – | – | – | – | – | – | – | –
COc1cc2ncccc2cc1-c1c[nH]c([C@@H](N)CCCCCC(=O)c2ccon2)n1 [Example 34, (S)-7-amino-1-(isoxazol-3-yl)-7-(4-(7-methoxyquinolin-6-yl)-1H-imidazol-2-yl)heptan-1-one] | 5.6 µM | 0.0014 µM | 120 nM | 23 nM | 44 nM | 5.1 nM | – | – | – | – | – | – | – | – | – | –
N[C@@H](CCCCCC(=O)c1cocn1)c1ncc(-c2ccccc2F)[nH]1 [Example 36, (S)-7-amino-7-(5-(2-fluorophenyl)-1H-imidazol-2-yl)-1-(oxazol-4-yl)heptan-1-one] | > 0.9 µM | – | > 900 nM | – | – | – | – | – | – | – | – | – | – | – | – | –
Cc1ccc2cc(-c3c[nH]c([C@H](CCCCCC(=O)c4ncco4)NC4CCN(C)CC4)n3)ccc2n1 [Example 78, (S)-7-((1-methylpiperidin-4-yl)amino)-7-(5-(2-methylquinolin-6-yl)-1H-imidazol-2-yl)-1-(oxazol-2-yl)heptan-1-one] | ≥ 45 µM | 0.0028 µM | – | – | – | – | – | 6900 nM | 660 nM | 620 nM | 8.3 nM | – | – | – | – | –
COc1cc2nc(C)ccc2cc1-c1cnc([C@H](CCCCCC(=O)c2ncco2)NC(=O)C2COc3ccccc3O2)[nH]1 (stereo partly drawn) [Example 171, N-[(1S)-1-[5-(7-methoxy-2-methylquinolin-6-yl)-1H-imidazol-2-yl]-7-(1,3-oxazol-2-yl)-7-oxoheptyl]-2,3-dihydro-1,4-benzodioxine-2-carboxamide] | – | – | – | 180 nM | 470 nM | – | – | – | – | – | – | > 0.9 µM | 340 nM | 0.011 µM | 0.004 µM | 56 nM
COc1cc2nc(C)ccc2cc1-c1cnc([C@H](CCCCCC(=O)c2ncco2)NC(=O)C2COC(c3ccccc3)CO2)[nH]1 (stereo partly drawn) [Example 172, N-[(1S)-1-[5-(7-methoxy-2-methylquinolin-6-yl)-1H-imidazol-2-yl]-7-(1,3-oxazol-2-yl)-7-oxoheptyl]-5-phenyl-1,4-dioxane-2-carboxamide] | – | – | – | 340 nM | 990 nM | – | – | – | – | – | – | > 0.9 µM | 490 nM | 0.02 µM | 0.0064 µM | 100 nM

— patent US12331044B2, “Inhibitors of histone deacetylase useful for the treatment or prevention of HIV infection” (Merck Sharp & Dohme LLC, priority 2018, dated 2025)
